Assay results taken from patent US20220153782A1, “COMPOUNDS, COMPOSITIONS AND METHODS FOR TREATING A NEUROLOGICAL CONDITION” (MEMORYPLUS LTD., priority 2019, published 2022).
“Also recorded” adds a separate entry of the source. Where a SMILES comes first, the peptide text is derived from it. [ ]: non-standard residue; d: D form. The star is where a group is joined. ξ: configuration not given here. Myristoyl = CCCCCCCCCCCCCC(=O)*; dThr(3ξ) = CC(O)[C@@H](N)C(=O)O; Lauroyl = CCCCCCCCCCCC(=O)*; ξIle = CC[C@H](C)C(N)C(=O)O

Legend:
[1] = Liver stability (liver homogenate); assay type: in vitro ADME, mouse; conditions: for half-life: mouse, liver homogenate
Source text: (§1) N, 3 independent experiments.
Liver stability (mouse). Clearance of peptide therapeutics is highly dependent on the high metabolism occurring by liver enzymes able to degrade within minutes the total dose of peptide reaching the bloodstream after intravenous, other parenteral and non-invasive (oral and nasal routes). Peptides with good plasma and liver stability are more likely to remain in circulation and thus elicit higher levels if peptide is brain permeable across the BBB via invasive and non-invasive routes.

[2] = tested on: hCMEC/D3 cells
Experimental: Cell metabolic activity was calculated in Human cerebral microvascular endothelial cells (hCMEC/D3) after exposure to the peptides at various concentrations for 4 or 24 hours (n=3, FIG. 7).
At the specified time points, the MTT solution (20 μL at 5 mg mL^−1 solution in PBS) were added to each well and cells were incubated for 4 hours at 37° C. Subsequently, DMSO (100 μL) was added to dissolve the formazan crystals and absorbance was measured at 570 and 690 nm using Multiskan Go microplate spectrophotometer and data were analysed using the SkanIt software (Thermo Scientific, Paisley, UK). Cell metabolic activity was calculated by subtracting the values at 690 nm from 570 nm to remove background, and dividing the values by the control to express as a percentage (%) of the control (0.5% DMSO):

[3] = in vitro; conditions: human; for Papp at 200 μM: BBB permeability; for Papp: Papp0-4 h experiment 2
Experimental: (§2) The in vitro permeability across a human 2D blood-brain Transwell model (hCMEC/D3 and human astrocytes SC-1800) was tested and enabled the calculation of the apparent permeability coefficient (Papp) for all peptides.

[4] = tested on: in vitro 2D human BBB model (hCMEC/D3 and human astrocytes SC-1800); assay: in vitro
Experimental: as §2

[5] = Plasma stability (human); assay type: in vitro ADME; conditions: for k / half-life: human plasma, one phase decay; for half-life: human, plasma
Source text: as §1
(§3) Plasma stability. […] Based on the higher lipophilicity of myristoylated peptides, dodecanoyl peptides are expected to be less protein bound and a higher percentage of the peptide will be available for permeation across biological barriers such as the BBB (only free fraction is available for transport). Thus, Dodecanoyl-[…] is a likely candidate for further development.

[6] = Self-assembly (Thioflavin T, critical aggregate concentration) and TEM; assay type: physicochemical; conditions: aqueous media, ThT
Source text: Peptides were able to aggregate in aqueous media and interact with Thioflavin T (ThT). ThT can be immobilized in fibrils/aggregates resulting in an increase in fluorescence. Dodecanoyl-[…] and Myristoyl-[…] result in lower critical aggregate concentrations (CAC) that is ˜5-fold lower from their equivalent lipidized peptides with a threonine. […] CAC is ˜20-fold smaller for myristoylated peptides compared to dodecanoyl peptides. […] This conserved structure can explain the increased stability and likely the success in solubilizing/stabilizing the peptide aggregates in hydroxyl-b-propyl cyclodextrin.

[7] = Stability in simulated intestinal fluid; assay type: in vitro ADME; conditions: one phase decay
Source text: as §1
Simulated intestinal fluids. The first hurdle that a peptide faces upon oral delivery is the high salt and acidic environment of the stomach that can denature the therapeutic peptide as well as the action of pepsin. Enteric coating can overcome this first hurdle easily with currently available industrial processes. Thus, we assessed the stability of the lipidized peptides in simulated intestinal fluids from non-fasted animals i.e. soluble fraction of digestive enzymes present in the upper gastrointestinal (and the major absorptive site for peptides). This soluble fraction contains pancreatic proteases such as trypsin and chymotrypsin, carboxypeptidases and aminopeptidases able to hydrolyse peptides down to di- or tripeptides. […] However, permeability across the BBB needs to be taken into consideration.

[8] = Physicochemical properties (water solubility)
[9] = Plasma stability (mouse); assay type: in vitro ADME; conditions: for half-life: mouse, plasma; for half-life / k: one phase decay
Source text: as §1, §3

[10] = Brain stability (brain homogenate); assay type: in vitro ADME, mouse; conditions: for brain stability (comparative): longer half-lives; for half-life: mouse, brain homogenate
Source text: as §1

[11] = tested on: in vitro 2D human BBB model (hCMEC/D3 and human astrocytes SC-1800); conditions: brain permeable peptide, literature; cited from earlier work
[12] = tested on: APP/PS1 mice; assay: Contextual fear conditioning, APP/PS1 mice; assay type: in vivo, mouse
Experimental: Use of peptides in vivo with osmotic pumps. APP/PS1 (a mouse model of Alzheimer's disease) and WT mice were anesthetized with isofluorane, and i.c.v. delivery cannulas (brain alzet kit III) were implanted with a stereotaxic frame at the following coordinates according to the bregma: AP, −0.5 mm; ML, 1 mm; and DV, −2.2 mm. Osmotic minipumps (Alzet; model #1004) were filled with the peptides (Dodecanoyl-[…] (conjugate of peptide SEQ ID 2) or Dodecanoyl-[…] (conjugate of peptide SEQ ID 1), 10 μM peptide in 2 mM in cyclodextrin) or with vehicle (cyclodextrin), and equilibrated in 0.9% NaCl at 37° C. for 48 hr. They were attached to the i.c.v. cannula tubing and subcutaneously implanted at the back. After 21 days, behavioral testing was started. Animal manipulation and data analysis were carried out blind with respect to genotype and treatment.
Fear conditioning. In this test, mice form an association between a certain context (an experimental cage/tone) and an aversive event (a foot shock) that takes place in that context. […] Training and testing took place in a rodent observation cage (30×37×25 cm) that was placed in a sound attenuating chamber. In the training (conditioning), the mouse was exposed to the conditioning context (180 sec) followed by a tone (CS, 20 sec, 2 kHz, 85 dB). After termination of the tone, a foot shock (US, 0.75 mA, 2 sec) was delivered through a stainless-steel grid floor. Mice received three foot shocks with an intertrial interval of 60 s. The mouse was removed from the fear conditioning box 30 sec after shock termination and returned to their home cages. Testing: In the contextual fear conditioning version, mice were placed back into the original training context for 8 min, during which no foot shock was delivered. […] The animals' behavior was scored by an observer blind to the treatment conditions. Using a time-sampling procedure every 2 s, each mouse was scored blindly as either freezing or active at the instant the sample was taken. […]

[13] = liver, one phase decay, read-out: t1/2 (h)
[14] = liver, one phase decay, read-out: t1/2 (min)
[15] = brain, one phase decay, read-out: t1/2 (h)
[16] = brain, one phase decay, read-out: t1/2 (min)

Compound | k ([1]; liver, one phase decay) [h⁻¹] | half-life [1, 13] [h] | half-life [1, 14] [h] | Cell viability [2] | Papp at 200 μM [3] [×10⁻⁶ cm/s] | Papp [3] [×10⁻⁶ cm/s] | BBB permeability [4] | k [5] [h⁻¹] | half-life ([5]; read-out: t1/2 (h)) [h] | half-life ([5]; read-out: t1/2 (min)) [h] | k [7] [h⁻¹] | half-life ([7]; read-out: t1/2 (h)) [h] | half-life ([7]; read-out: t1/2 (min)) [h] | half-life ([9]; read-out: t1/2 (h)) [h] | half-life ([9]; read-out: t1/2 (min)) [h] | k [9] [h⁻¹] | brain stability (comparative) ([10]; brain (mouse)) | k ([10]; brain, one phase decay) [h⁻¹] | half-life [10, 15] [h] | half-life [10, 16] [h] | further results
CCCCCCCCCCCCCC(=O)N[C@@H](CCC(N)=O)C(=O)N[C@@H](Cc1c[nH]cn1)C(=O)N[C@@H](CO)C(=O)N[C@@H](CCC(N)=O)C(=O)N[C@H](C(=O)N[C@H](C(=O)N[C@@H](CCCCN)C(=O)N[C@H](C(=O)O)C(C)C)[C@@H](C)O)[C@@H](C)CC (Myristoyl-QHSQITKV-OH; C-terminus assumed) | 0.5092 | 1.36 | 1.36 | + | < 3.77 | 2.63 ± 0.0786 | poor | 0.3116 | 2.22 | 2.22 | 0.1534 | 4.52 | 4.52 | 0.869 | 0.869 | 0.7972 | more brain stable | 2.714 | 0.255 | 0.255 | half-life ([1]; liver (mouse), read-out: half-life (converted)): 1.4 h; recovery of cells at 24 hours [2]: did not recover; critical aggregate concentration (CAC), lower than equivalent lipidized peptide with a threonine [6]: ~5 fold; water solubility (comparative with threonine analogue) [8]: higher water solubility; remaining at 2 h ([9]; after 2 hours of incubation, read-out: peptide remaining): ~50%; stability in mouse plasma (comparative) ([9]; longer half-lives): more plasma stable; half-life ([10]; brain (mouse), read-out: half-life (converted)): 0.26 h
CCCCCCCCCCCCCC(=O)N[C@@H](CCC(N)=O)C(=O)N[C@@H](Cc1c[nH]cn1)C(=O)N[C@H](C(=O)N[C@@H](CCC(N)=O)C(=O)N[C@H](C(=O)N[C@H](C(=O)N[C@@H](CCCCN)C(=O)N[C@H](C(=O)O)C(C)C)[C@@H](C)O)[C@@H](C)CC)[C@@H](C)O (Myristoyl-QHTQITKV-OH; C-terminus assumed) | 0.03747 | 18.5 | 18.5 | +++++ | 2.63 to 5.57 | 3.77 ± 0.386 |  | 1.604 | 0.432 | 0.432 | 0.2490 |  |  | 0.112 | 0.112 | 6.172 |  | 4.204 | 0.165 | 0.165 | k (fast) ([1]; liver, two phase decay, fast): 3.051 (fast), h^−1; k (slow) ([1]; liver, two phase decay, slow): 0.00046 h⁻¹; half-life ([1]; liver, two phase decay, fast, read-out: t1/2 (h) (fast) (converted)): 0.227 h; half-life ([1]; liver, two phase decay, fast, read-out: t1/2 (min) (fast)): 0.227 h; half-life ([1]; liver, two phase decay, slow, read-out: t1/2 (h) (slow) (converted)): 1510 h; half-life ([1]; liver, two phase decay, slow, read-out: t1/2 (min) (slow)): 1510 h; physicochemical properties for successful development [8]: poor
Angiopep-2 |  |  |  |  |  |  |  |  |  |  |  |  |  |  |  |  |  |  |  |  | Papp, previous reported value [11]: 8.69±1.53 ×10^−6 cm/s
CCCCCCCCCCCC(=O)N[C@@H](CCC(N)=O)C(=O)N[C@H](Cc1c[nH]cn1)C(=O)N[C@@H](CO)C(=O)N[C@H](CCC(N)=O)C(=O)NC(C(=O)N[C@@H](C(=O)N[C@@H](CCCCN)C(=O)N[C@@H](C(=O)O)C(C)C)C(C)O)[C@@H](C)CC (stereo partly shown) (Lauroyl-Q[dH]S[dQ][ξIle][dThr(3ξ)]K[dV]-OH) | 1.146 | 0.605 | 0.605 | +++++ | > 3.77 | 5.57 ± 0.289 | good | 0.2102 | 3.3 | 3.3 | 0.2337 | 2.97 | 2.97 | 0.151 | 0.151 | 4.595 | more brain stable | 1.901 | 0.365 | 0.365 | cell viability [2]: good; human plasma stability [5]: good; freezing behavior compared with the myristoyl peptide ([12]; FIG. 5): more than the myristoyl peptide; increase in freezing compared to myristoyl-QHSQITKV ([12]; fear conditioning test): 36%; contextual fear conditioning performance (freezing behavior) ([12]; i.c.v. infusion 3-4 weeks, vs vehicle, FIG. 4B): improved the performance; also recorded: enhance freezing behavior
